In patent US11980620B2, “Compounds and methods for treatment of Diamond Blackfan anemia” (THE CHILDREN'S MEDICAL CENTER CORPORATION, priority 2017, dated 2024):

Experiments:
[1] = system: mice with irradiation-induced anemia; test: Irradiation-induced anemia in mice, peripheral blood RBC counts and hematocrit; format: in vivo, mouse; conditions: 10 mg/kg, 3 weeks, sub-lethally irradiated mice
Protocol: (FIG. 10A) SMER28 rescues RBC output in rps29^+/− zebrafish embryos. The level of hemoglobin in the yolk sac was visualized 40hpf with benzidine staining. Images are representative of the proportion of embryos indicated (of total counted). (FIG. 10B) Quantitation of SMER28 rescue for a range of 0.1-1 μM, with embryos grouped by high, medium, and low levels of hemoglobin staining. (FIG. 10C) Peripheral blood (PB) RBC counts and hematocrit in mice with irradiation-induced anemia. Mice were treated with the PEG400-based vehicle containing DMSO (VEH) (n=11), 1 mg/kg Dex (sodium-phosphate) (n=13), or 10 mg/kg SMER28 (n=9) for 3 weeks, bled, and assessed. Data are combined from 3 independent experiments. (FIG. 10D) Erythroid cells as proportion of the human graft in mice transplanted with DBA CD34-5F progenitors, and treated as in (FIG. 1c). (FIG. 10E) Levels of human engraftment in NSG mouse bone marrow (BM) transplanted with CB CD34^+ cells. Mice were treated with DMSO plus vehicle (VEH) (n=10), 1 mg/kg Dex (sodium-phosphate) (n=6), or 2 mg/kg SMER28 (n=11) for 4 weeks. (FIG. 10F) The proportion of erythroid, myeloid, and lymphoid (B cells) lineages within the human graft in vehicle- and SMER28-treated mice transplanted with CB CD34^+ cells. Only the effect on the erythroid lineage was significant. Data in FIGS. 10E-10G are pooled from 2 independent experiments. […]

[2] = system: K562 erythroleukemia cells transduced with shRPS19; test: Autophagy induction (p62, LC3-I, LC3-II protein levels) in K562 cells transduced with shRPS19; format: cell-based, human
Protocol: (FIG. 13A) Induction of autophagy by SMER28 (40 μM) monitored by protein levels of p62, LC3-I, and LC3-II after 24 hours. Cells were also treated with 5-FU (100 nM) to induce autophagy, or inhibitor of transcription actinomycin D (ActD; 100 nM). (FIG. 13B) Induction of autophagy by SMER28 (40 μM) monitored by protein levels of p62, LC3-I, and LC3-II after 24 hours treatment with or without lysosomal blockade with bafilomycin A (200 nM for 4 hours). Untreated samples are shown at higher exposure, to capture dynamic changes in the LC3-II levels. Rapamycin (200 nM) is a positive control. LC3-II levels relative to GAPDH are quantitated on the right. (FIG. 13C) Erythroid differentiation of CD34-5F cells transduced with shRNAs for luciferase (LUC) or ATG5±SMER28. Representative flow plots and quantitation showing the number of erythroid cells induced by SMER28 (10 μM) normalized to DMSO. 2 control luciferase shRNAs and 2 ATG5 shRNAs are included (knockdown efficiency in hematopoietic cells of 58% and 50%, respectively), each with 2 independent lines; p=0.005, 3 independent experiments. (FIG. 13D) Atg5 deficiency causes anemia in zebrafish. Wild-type zebrafish embryos were treated with 1.6 ng atg5 or missense morpholino, and hemoglobin staining was visualized with benzidine staining at 40 hpf with SMER28 (1 μM). Representative images (left), and quantitation (right) with embryos grouped by high, medium, and low levels of benzidine staining.
SMER28 was identified as an mTOR-independent inducer of autophagy, by synergizing with rapamycin to promote clearance of protein aggregates in models of neurodegenerative disease (Sarkar et al., 2007; Tian et al., 2011). Autophagy is a pro-survival pathway induced by a variety of stresses, such as nutrient limitation or protein aggregation. Autophagy is required for clearance of mitochondria during terminal erythroid maturation (Mortensen and Simon, 2010), but has not been linked with earlier stages of erythropoiesis. To determine if SMER28 modulates autophagy in erythroid cells, we interrogated the levels of p62 and LC3 in K562 erythroleukemia cells transduced with shRPS19. SMER28 reduced p62 and increased the levels of […] LC3-II isoform associated with autophagosomes (FIG. 13A). […] To measure autophagic flux, we monitored LC3-II levels after blocking lysosomal fusion with bafilomycin A. SMER28 increased LC3-II levels following lysosomal blockade, similarly to the mTOR inhibitor rapamycin (FIG. 13B).
Drug treatments. SMER28 was purchased from Tocris and diluted in 10 mM aliquots in DMSO. The final concentration for CD34-5F and CB CD34^+erythroid treatments was 0.2-10 μM as indicated in the text. The final concentration for K562 cell treatments was 20-40 μM. […]

p21 = p21 levels in CD34+ cells of DBA patient derived erythroid cell population; format: cell-based, human; conditions: 1.5 μM; in vitro
Excerpt: Accordingly, in another embodiment, an autophagy activator as disclosed herein can be administered to a subject according to the methods as disclosed herein in an effective dose to decrease the levels of p21 expression in CD34+ cells present in an erythroid cell population obtained from the subject by at least about 1%, at least about 2%, at least about 3%, at least about 5%, at least about 10%, at least about 15%, least about 20%, at least about 30%, at least about 40%, at least about 50%, at least about 60%, at least about 70%, at least about 80%, at least about 90%, at least about 95%, at least about 98%, at least about 99%, or more than 99%, as compared to in the absence of an autophagy activator.

A53T alpha-synuclein = conditions: PC-12 cells; independent of rapamycin treatment; cited from earlier work

## C=CCNc1ncnc2ccc(Br)cc12 [SMER28, 6-Bromo-N-2-propenyl-4-quinazolinam]
[1]; p=0.04
  hematocrit vs vehicle: modestly elevated
[1]; p=0.07
  peripheral blood RBC counts vs vehicle: modestly elevated
[2]; SMER28 40 μM 24 hours, bafilomycin A 200 nM for 4 hours
  LC3-II levels following lysosomal blockade (autophagic flux): increased
[2]; SMER28 40 μM, 24 hours
  levels of LC3-II isoform associated with autophagosomes: increased
  p62 protein level: reduced
p21
  levels of p21 in CD34+ cells: decreased
A53T alpha-synuclein
  A53T alpha-synuclein clearance: Enhances
